Columns and labels:
Assay type in all cases: in vivo, female NOD-SCID mice
[1] = system: PVNS grafts; assay: PVNS-PDX tumor model, tumor growth / final tumor size; conditions: PVNS-PDX mice, 14 days of FK866 treatment, 30 mg/kg i.p.
Description: (§1) A PVNS-human-derived tissue xenograft (PDX) tumor model was established using female NOD-SCID gnotobiotic mice aged 5 to 6 weeks. The human-derived tissue was sourced from the tumor tissue of patients with a confirmed diagnosis of PVNS who underwent surgery. During the surgery, viable synovial tissue was collected and then transplanted to construct the PVNS-PDX tumor model. The mice were purchased from Vital River Laboratory Animal Technology Co., Ltd. (Beijing, China) and were housed in micro-isolator cages under specific pathogen-free conditions. Tumor grafts were prepared using sterile SmartFlow (Airtech, China). After removing the necrotic tissue, the tumor tissue was rinsed three times with physiological saline. Subsequently, the tumor mass was segmented into small pieces (diameter ranging from 1.0 to 3.0 mm) using a surgical blade. The tumor tissue (graft) was suspended in serum-free Dulbecco's Modified Eagle Medium and then cryopreserved for implantation. The surgery was carried out by using an anesthesia machine. Mice were anesthetized with 2.5% isoflurane and kept in a lateral position. The skin was sterilely prepared using surgical-grade povidone-iodine, and a small dorsal midline incision (approximately 20.0 mm) was made in the kidney area. […] Tumor size was measured under a microscope and calculated using the formula […], where L is the length and W is the width.

[2] = system: JUND; assay: Western blot of JUND in synovium of PVNS-PDX mice; conditions: FK866 30 mg/kg i.p. twice daily, four consecutive days weekly, two weeks, compared to the PDX group
Description: A PVNS-human-derived tissue xenograft (PDX) tumor model was established using female NOD-SCID gnotobiotic mice aged 5 to 6 weeks. The human-derived tissue was sourced from the tumor tissue of patients with a confirmed diagnosis of PVNS who underwent surgery. During the surgery, viable synovial tissue was collected and then transplanted to construct the PVNS-PDX tumor model. The mice were purchased from Vital River Laboratory Animal Technology Co., Ltd. (Beijing, China) and were housed in micro-isolator cages under specific pathogen-free conditions. Tumor grafts were prepared using sterile SmartFlow (Airtech, China). After removing the necrotic tissue, the tumor tissue was rinsed three times with physiological saline. […] Tumor size was measured under a microscope and calculated using the formula […], where L is the length and W is the width.
Synovial tissue lysates were prepared using RIPA buffer supplemented with PMSF, incubated on ice, and physically sheared for 25 min. The proteins were extracted, and their concentration was measured using the BCA protein assay kit (Beyotime, P0011). […] Band intensity was quantified using ImageJ software version 1.39 V. The primary antibodies used were: anti-NAMPT (1:1000, ABclonal, A0256); anti-ITGA5 (1:1000, ABclonal, A19069); anti-JUND (1:1000, ABclonal, A5496); and anti-β-actin (1:1000, ABclonal, AC006).

[3] = system: JUND; assay: Immunohistochemistry of JUND in PVNS-PDX mice; conditions: FK866 30 mg/kg i.p. twice daily, four consecutive days weekly, two weeks, compared to the PDX group
Description: as §1, with “machine.” for “machine. Mice were anesthetized with 2.5% isoflurane and kept in a lateral position. The skin was sterilely prepared using surgical-grade povidone-iodine, and a small dorsal midline incision (approximately 20.0 mm) was made in the kidney area.”
The synovial tissue was fixed in 10% neutral buffered formalin for two days, followed by dehydration with a series of graded ethanol. […] The integrated optical density values of positive staining were evaluated using ImageJ software.

[4] = system: PVNS grafts; assay: Vascular permeability assay (Evans blue) in PVNS grafts; conditions: PVNS-PDX mice, after 14 days of FK866 30 mg/kg i.p.; mean±S.E.M.; p<0.001 vs. PDX group (14.93±2.003)
Description: as §1, with “machine.” for “machine. Mice were anesthetized with 2.5% isoflurane and kept in a lateral position. The skin was sterilely prepared using surgical-grade povidone-iodine, and a small dorsal midline incision (approximately 20.0 mm) was made in the kidney area.”
[…] The concentration of Evans blue in the tissue extract was measured using a microplate reader at a wavelength of 630 nm and a standard curve of Evans blue concentration. […]

[5] = system: fibrinogen (FGB); assay: Immunofluorescence staining of FGB and CD31 in PVNS-PDX mice; conditions: FK866 30 mg/kg i.p., in contrast to the PDX group
Description: as §1, with “machine.” for “machine. Mice were anesthetized with 2.5% isoflurane and kept in a lateral position. The skin was sterilely prepared using surgical-grade povidone-iodine, and a small dorsal midline incision (approximately 20.0 mm) was made in the kidney area.”
The frozen tissue sections were thawed at room temperature for 1 hour. […] The tissue sections were observed using a fluorescence microscope, and the fluorescence intensity was assessed using ImageJ. […]

O=C(/C=C/c1cccnc1)NCCCCC1CCN(C(=O)c2ccccc2)CC1 [FK866]
Tumor growth [1]: significantly inhibited
JUND expression (WB analysis) [2]: significant decrease
JUND expression (IHC staining) [3]: notable reduction
Evan's blue dye concentration in PVNS grafts (vascular leakage) [4]: 4.040±1.618 ng Evan's blue dye/mg tissue
FGB deposition around the blood vessels (immunofluorescence) [5]: significantly reduced

From US20250360122A1, “USE OF NAMPT INHIBITORS IN THE MANUFACTURE OF MEDICAMENTS FOR PREVENTING AND/OR TREATING PIGMENTED VILLONODULAR SYNOVITIS” (WEST CHINA HOSPITAL, SICHUAN UNIVERSITY, priority 2024, published 2025)
